Laboratory results as given in ChEMBL document CHEMBL5505990, “Novel aroyl guanidine anti-trypanosomal compounds that exert opposing effects on parasite energy metabolism” (Eur J Med Chem, 2024).
Active and inactive are the calls of the source. The calls are words filed in the database; no cut-off is given here.

Assays:
[1] = test system: Trypanosoma brucei brucei; assay: Anti-trypanosomal activity against Trypanosoma brucei brucei; format: functional, organism-based
[2] = Cytotoxicity against HEK293 cells; format: toxicity, cell-based; details: human
[3] = Selectivity ratio of IC50 for HEK293 cells to IC50 for Trypanosoma brucei brucei; format: toxicity; details: human, read-out: Ratio IC50
[4] = Cytotoxicity against HEK293 cells assessed as inhibition of cell viability at 83 uM relative to control; format: toxicity, cell-based; details: human, read-out: INH
[5] = test system: Trypanosoma brucei brucei; assay: Disruption of nucleotide metabolism in bloodstream Trypanosoma brucei brucei 427 assessed as depletion of GTP at 1 uM incubated for 5 hrs; format: functional, organism-based
[6] = test system: Trypanosoma brucei brucei; assay: Disruption of nucleotide metabolism in bloodstream Trypanosoma brucei brucei 427 assessed as accumulation of purine/pyrimidine base forms at 1 uM incubated for 5 hrs; format: functional, organism-based
[7] = test system: Trypanosoma brucei brucei; assay: Disruption of nucleotide metabolism in bloodstream Trypanosoma brucei brucei 427 assessed as depletion of deoxy-UTP at 1 uM incubated for 5 hrs; format: functional, organism-based
[8] = test system: Trypanosoma brucei brucei; assay: Downregulation of 6-phosphogluconate level in bloodstream Trypanosoma brucei brucei 427 assessed as increase in pyruvate level at 1 uM incubated for 5 hrs; format: functional
[9] = test system: Trypanosoma brucei brucei; assay: Effect on free carnitine level in bloodstream Trypanosoma brucei brucei 427 assessed as increase in pyruvate level at 1 uM incubated for 5 hrs; format: functional
[10] = test system: Trypanosoma brucei brucei; assay: Induction of glycolysis in bloodstream Trypanosoma brucei brucei 427 assessed as increase in glycerol level at 1 uM incubated for 5 hrs; format: functional
[11] = test system: Trypanosoma brucei brucei; assay: Disruption of nucleotide metabolism in bloodstream Trypanosoma brucei brucei 427 assessed as depletion of deoxy-CTP at 1 uM incubated for 5 hrs; format: functional, organism-based
[12] = test system: Trypanosoma brucei brucei; assay: Upregulation of carnitine to acetyl-carnitine ratio in bloodstream Trypanosoma brucei brucei 427 assessed as increase in pyruvate level at 1 uM incubated for 5 hrs; format: functional
[13] = test system: Trypanosoma brucei brucei; assay: Induction of glycolysis in bloodstream Trypanosoma brucei brucei 427 assessed as increase in pyruvate level at 1 uM incubated for 5 hrs; format: functional
[14] = test system: Trypanosoma brucei brucei; assay: Disruption of nucleotide metabolism in bloodstream Trypanosoma brucei brucei 427 assessed as accumulation of nucleosides at 1 uM incubated for 5 hrs; format: functional, organism-based
[15] = test system: Trypanosoma brucei brucei; assay: Induction of glycolysis in bloodstream Trypanosoma brucei brucei 427 assessed as increase in succinate level at 1 uM incubated for 5 hrs; format: functional
[16] = test system: Trypanosoma brucei brucei; assay: Disruption of nucleotide metabolism in bloodstream Trypanosoma brucei brucei 427 assessed as accumulation of NDP at 1 uM incubated for 5 hrs; format: functional, organism-based
[17] = test system: Trypanosoma brucei brucei; assay: Effect on stearoyl-CoA level in bloodstream Trypanosoma brucei brucei 427 assessed as increase in pyruvate level at 1 uM incubated for 5 hrs; format: functional
[18] = test system: Trypanosoma brucei brucei; assay: Upregulation of glycolytic flux in bloodstream Trypanosoma brucei brucei 427 assessed as increase in pyruvate level at 1 uM incubated for 5 hrs; format: functional
[19] = test system: Trypanosoma brucei brucei; assay: Effect on palmitoyl-CoA level in bloodstream Trypanosoma brucei brucei 427 assessed as increase in pyruvate level at 1 uM incubated for 5 hrs; format: functional
[20] = test system: Trypanosoma brucei brucei; assay: Disruption of nucleotide metabolism in bloodstream Trypanosoma brucei brucei 427 assessed as depletion of CTP at 1 uM incubated for 5 hrs; format: functional, organism-based
[21] = test system: Trypanosoma brucei brucei; assay: Effect on acetyl-carnitine level in bloodstream Trypanosoma brucei brucei 427 assessed as increase in pyruvate level at 1 uM incubated for 5 hrs; format: functional
[22] = test system: Trypanosoma brucei brucei; assay: Disruption of nucleotide metabolism in bloodstream Trypanosoma brucei brucei 427 assessed as depletion of ATP at 1 uM incubated for 5 hrs; format: functional, organism-based
[23] = test system: Trypanosoma brucei brucei; assay: Disruption of nucleotide metabolism in bloodstream Trypanosoma brucei brucei 427 assessed as depletion of UTP at 1 uM incubated for 5 hrs; format: functional, organism-based
[24] = test system: Trypanosoma brucei brucei; assay: Disruption of nucleotide metabolism in bloodstream Trypanosoma brucei brucei 427 assessed as depletion of deoxy-GTP at 1 uM incubated for 5 hrs; format: functional, organism-based
[25] = test system: Trypanosoma brucei brucei; assay: Disruption of nucleotide metabolism in bloodstream Trypanosoma brucei brucei 427 assessed as depletion of deoxy-ATP at 1 uM incubated for 5 hrs; format: functional, organism-based
[26] = test system: Trypanosoma brucei brucei; assay: Downregulation of NADPH level in bloodstream Trypanosoma brucei brucei 427 assessed as increase in pyruvate level at 1 uM incubated for 5 hrs; format: functional
[27] = test system: Trypanosoma brucei brucei; assay: Effect on free CoA level in bloodstream Trypanosoma brucei brucei 427 assessed as increase in pyruvate level at 1 uM incubated for 5 hrs; format: functional
[28] = test system: Trypanosoma brucei brucei; assay: Effect on acetyl-CoA level in bloodstream Trypanosoma brucei brucei 427 assessed as increase in pyruvate level at 1 uM incubated for 5 hrs; format: functional
[29] = test system: Trypanosoma brucei brucei; assay: Disruption of nucleotide metabolism in bloodstream Trypanosoma brucei brucei 427 assessed as accumulation of NMP at 1 uM incubated for 5 hrs; format: functional, organism-based
[30] = test system: Trypanosoma brucei brucei; assay: Anti-trypanosomal activity against Trypanosoma brucei brucei at 10 uM relative to control; format: functional
[31] = test system: Trypanosoma brucei brucei; assay: Disruption of nucleotide metabolism in bloodstream Trypanosoma brucei brucei 427 assessed as depletion of NTP at 1 uM incubated for 5 hrs; format: functional, organism-based

CCc1ccccc1/N=C(\NCCN1CCOCC1)NC(=O)c1ccccc1F
IC50 [1]: 7 µM | IC50 [2]: > 10 µM | selectivity ratio [3]: 1

CCc1ccccc1/N=C(\NCCN1CCOCC1)NC(=O)c1ccccc1Br
IC50 [1]: > 10 µM

CCc1ccccc1/N=C(\NCCN1CCOCC1)NC(=O)c1ccc(F)c(C)c1
cytotoxicity at 83 µM [4]: 101% | IC50 [1]: 2.4 µM

O=C(N/C(=N/c1ccccc1Br)NCCN1CCOCC1)c1ccccc1
Activity [5]: Active | Activity [6]: Active | Activity [7]: Active | Activity [8]: Active | IC50 [1]: 4.2 µM | Activity [9]: Active | Activity [10]: Active | Activity [11]: Active | Activity [12]: Active | Activity [13]: Active | Activity [14]: Active | Activity [15]: Active | Activity [16]: Active | IC50 [2]: > 83 µM | selectivity ratio [3]: > 19 | Activity [17]: Active | Activity [18]: Active | Activity [19]: Active | Activity [20]: Active | Activity [21]: Active | Activity [22]: Active | Activity [23]: Active | Activity [24]: Active | Activity [25]: Active | Activity [26]: Active | Activity [27]: Active | Activity [28]: inactive | Activity [29]: Active

CC(C)c1ccccc1/N=C(\NCCN1CCOCC1)NC(=O)c1ccccc1
cytotoxicity at 83 µM [4]: 63% | inhibition at 10 µM [30]: 75%

CCc1ccccc1/N=C(\NCCN1CCOCC1)NC(=O)c1cccc(C)c1
IC50 [1]: 1.3 µM | IC50 [2]: > 83 µM | selectivity ratio [3]: > 64

CCc1ccccc1/N=C(\NCCN1CCOCC1)NC(=O)c1ccc(Cl)cc1
IC50 [1]: 1.6 µM | IC50 [2]: > 83 µM | selectivity ratio [3]: > 52

CCc1ccccc1/N=C(\NCCN1CCOCC1)NC(=O)c1cccc(OC)c1
IC50 [1]: 1.6 µM | IC50 [2]: > 83 µM | selectivity ratio [3]: > 52

CCc1ccccc1/N=C(\NCCN1CCCC1)NC(=O)c1ccccc1
IC50 [1]: > 10 µM

CCc1ccccc1/N=C(\NCCN1CCOCC1)NC(=O)c1cccc(C(C)=O)c1
IC50 [1]: > 83 µM | IC50 [2]: > 83 µM | selectivity ratio [3]: 1

CCc1ccccc1/N=C(\NCCN1CCN(C)CC1)NC(=O)c1ccccc1
IC50 [1]: > 10 µM

CCc1ccccc1/N=C(\NCCN1CCOCC1)NC(=O)c1cccc(O)c1
IC50 [1]: > 83 µM | IC50 [2]: > 83 µM | selectivity ratio [3]: 1

CCc1ccccc1/N=C(\NCCCN1CCOCC1)NC(=O)c1ccccc1
IC50 [1]: > 10 µM

O=C(N/C(=N/c1ccccc1C(F)(F)F)NCCN1CCOCC1)c1ccccc1
cytotoxicity at 83 µM [4]: 63% | inhibition at 10 µM [30]: 59%

COc1ccccc1/N=C(\NCCN1CCOCC1)NC(=O)c1ccccc1
IC50 [1]: > 10 µM

CCCc1ccccc1/N=C(\NCCN1CCOCC1)NC(=O)c1ccccc1
cytotoxicity at 83 µM [4]: 58% | inhibition at 10 µM [30]: 72%

CCc1ccccc1/N=C(\NCCN(C)C)NC(=O)c1ccccc1
IC50 [1]: > 10 µM

O=C(N/C(=N/c1ccccc1Cl)NCCN1CCOCC1)c1ccccc1
IC50 [1]: 7.5 µM | IC50 [2]: > 83 µM | selectivity ratio [3]: > 11

O=C(N/C(=N/c1ccccc1F)NCCN1CCOCC1)c1ccccc1
IC50 [1]: > 10 µM

CCc1ccccc1/N=C(\NCCN1CCOCC1)NC(=O)c1ccccc1C
IC50 [1]: > 10 µM

CCc1ccccc1/N=C(\NCCN1CCOCC1)NC(=O)c1ccccc1Cl
IC50 [1]: > 10 µM

O=C(N/C(=N/c1ccccc1)NCCN1CCOCC1)c1ccccc1
IC50 [1]: > 10 µM

CCCc1ccc(C(=O)N/C(=N/c2ccccc2CC)NCCN2CCOCC2)cc1
IC50 [1]: 9 µM | IC50 [2]: > 83 µM | selectivity ratio [3]: > 9

CCc1ccccc1/N=C(\NCCN1CCOCC1)NC(=O)c1ccc(C(C)C)cc1
cytotoxicity at 83 µM [4]: 52% | IC50 [1]: 10 µM

CCc1ccccc1/N=C(\NCCN1CCOCC1)NC(=O)c1cccc(F)c1
IC50 [1]: 1.6 µM | IC50 [2]: > 83 µM | selectivity ratio [3]: > 52

N#Cc1ccccc1/N=C(\NCCN1CCOCC1)NC(=O)c1ccccc1
IC50 [1]: > 10 µM

CCc1ccccc1/N=C(\NCCN1CCOCC1)NC(=O)c1ccc(F)cc1
Activity [6]: inactive | Activity [8]: inactive | IC50 [1]: 1.8 µM | Activity [9]: inactive | Activity [31]: inactive | Activity [10]: inactive | Activity [12]: inactive | Activity [13]: inactive | Activity [14]: inactive | Activity [15]: inactive | Activity [16]: inactive | IC50 [2]: > 83 µM | selectivity ratio [3]: 46 | Activity [17]: inactive | Activity [18]: inactive | Activity [19]: inactive | Activity [21]: inactive | Activity [26]: inactive | Activity [27]: inactive | Activity [28]: Active | Activity [29]: inactive

CCc1ccccc1/N=C(\NCCN1CCOCC1)NC(=O)c1ccc(OC)cc1
IC50 [1]: 9.4 µM | IC50 [2]: > 83 µM | selectivity ratio [3]: > 8.8

CCc1ccccc1/N=C(\NCCN1CCOCC1)NC(=O)c1ccc(Br)cc1
IC50 [1]: 8.7 µM | IC50 [2]: > 83 µM | selectivity ratio [3]: > 9.5

CCc1ccccc1/N=C(\NCCN1CCCCC1)NC(=O)c1ccccc1
IC50 [1]: > 10 µM

CCc1ccccc1/N=C(\NCCN1CCOCC1)NC(=O)c1ccc(F)c(OC)c1
cytotoxicity at 83 µM [4]: 94% | IC50 [1]: 0.75 µM

CCc1ccccc1/N=C(\NCCN1CCOCC1)NC(=O)c1ccc(F)c(F)c1
Activity [5]: Active | Activity [7]: Active | Activity [8]: Active | cytotoxicity at 83 µM [4]: 86% | IC50 [1]: 1.8 µM | Activity [9]: Active | Activity [10]: Active | Activity [11]: Active | Activity [12]: Active | Activity [13]: Active | Activity [15]: Active | Activity [17]: Active | Activity [18]: Active | Activity [19]: Active | Activity [20]: Active | Activity [21]: Active | Activity [22]: Active | Activity [23]: Active | Activity [24]: Active | Activity [25]: Active | Activity [26]: Active | Activity [27]: Active | Activity [28]: inactive

CCc1ccccc1/N=C(\NCCN1CCOCC1)NC(=O)c1ccccc1OC
IC50 [1]: > 10 µM
